The subject of one data set is MRSA isolates. The following applies: MRSA isolates in a surveillance study (Arhin et al., 2009); cited from earlier work.
Data set [1] can be described thus: SOLO I Phase 3 trial, safety assessments (safety population). Format: in vivo, human. The following applies: for Patients who died during the study: all determined unrelated to study drug; for Infusion site reaction AEs / Pruritus AEs: post-hoc analysis; for Incidence of diarrhea / Incidence of headache / Incidence of nausea / Incidence of vomiting: safety population. From the text: The study design was consistent with current guidelines from FDA (U.S. Food and Drug Administration. Guidance for Industry Acute Bacterial Skin and Skin Structure Infections: Developing Drugs for Treatment (DRAFT GUIDANCE). Available via Internet at the URL containing: fda.gov/downloads/Drugs/GuidanceComplianceRegulatoryInformation/Guidances/ucm071185.p df) and EMA (European Medicines Agency Committee for Medicinal Products for Human Use. Addendum to the note for guidance on evaluation of medicinal products indicated for treatment of bacterial infections (CHMP/EWP/558/95 REV 2) to address indication-specific clinical data (draft). 2012. Available via Internet at the URL containing: ema.europa.eu/docs/en_GB/document_library/Scientific_guideline/2012/07/WC500129443.pdf) and Foundation for National Institutes of Health guidance was considered for analyses (Talbot G H etl. Clin Infect Dis. 2012. 55(8):1114-1121). The protocol was approved by institutional review boards/ethics committees and all patients provided written informed consent. The study was conducted from January 2011 through October 2012 at 46 study centers in Mexico, Spain, Germany, Romania, Russia, Ukraine, Israel, India, and the United States. […] Aztreonam and metronidazole were permitted for gram-negative and anaerobic cover, respectively.
Safety assessments (Safety Population) included vital signs, electrocardiogram (ECG), clinical chemistry and hematology parameters, reporting of adverse events (AEs) and serious adverse events (SAEs). Treatment-emergent adverse events (TEAEs) were defined as AEs with onset or worsening severity at or after the first dose of study drug through the Safety Follow-up Visit (Day 60+7 days).
For safety assessments, descriptive analyses were performed in the safety population for all safety parameters by treatment group.
The intent-to-treat (ITT) population included all patients randomized into the study. The modified intent-to-treat (mITT) was the primary population for all the efficacy analyses and included all randomized patients who received any study drug. The clinically evaluable (CE) population consisted of all mITT patients who met the inclusion/exclusion criteria, received the full-course of randomized study treatment (for a minimum of 7 days), and had investigator assessment for clinical cure at PTE. The CE population was used to confirm the efficacy analyses. The microbiologically ITT (MicroITT) population consisted of all mITT patients with baseline gram-positive pathogen(s) known to cause ABSSSI and it was used for the secondary efficacy analyses. The microbiologically evaluable (MicroE) population was used to confirm the secondary efficacy analyses and consisted of all patients who were in both the MicroITT and CE populations. The safety population was the primary population for all the safety analyses, and consisted of all patients who were dosed with study drug, irrespective of randomization. Treatment classification was based on the actual treatment received.

Data set [2] can be described thus: SOLO I and SOLO II combined, safety. It counts as in vivo, human. The note with it: for Treatment emergent adverse events considered by investigators as related to study drug: p=0.002; for Patients reported to experience at least one adverse event: safety population.
The conditions of data set [3]: cited from earlier work; for Free Fraction: protein binding values from Arhin et al., 2010 (oritavancin) and package inserts (comparators).

In brackets after ≈: the same amount, converted by molar mass.

As for `CN[C@H](CC(C)C)C(=O)N[C@H]1C(=O)N[C@@H](CC(N)=O)C(=O)N[C@H]2C(=O)N[C@H]3C(=O)N[C@H](C(=O)N[C@H](C(=O)O)c4cc(O)cc(O)c4-c4cc3ccc4O)[C@H](O[C@H]3C[C@](C)(N)[C@@H](O)[C@H](C)O3)c3ccc(c(Cl)c3)Oc3cc2cc(c3O[C@@H]2O[C@H](CO)[C@@H](O)[C@H](O)[C@H]2O[C@H]2C[C@](C)(NCc3ccc(-c4ccc(Cl)cc4)cc3)[C@@H](O)[C@H](C)O2)Oc2ccc(cc2Cl)[C@H]1O` [Oritavancin, N^DISACC-(4-(4-chlorophenyl)benzyl)A82846B], the MIC90 with MRSA isolates is 0.12 µg/mL (≈ 0.0669 µM). Further, in data set [1], the “Cellulitis SAEs considered new events” value is given as 2, the “Discontinuation of study drug due to cellulitis” value amounted to 2 patients, the “Frequency of SAEs” value was 7.4% and the “Histamine-like reactions (Red Man syndrome)” value is given as “No histamine-like reactions occurred”. In data set [1], the “Proportion of patients experiencing a TEAE that led to discontinuation of the study drug” value is recorded as 3.8%; the “Skin and subcutaneous tissue adverse events” value is 11.6%; the “Patients who died during the study” value is recorded as “one”; the “Infusion site reaction AEs” value is recorded as 4.0%. For the same molecule, in data set [1], the “Pruritus AEs” value was determined as 3.4%, the Incidence of diarrhea stood at 4.9%, the Incidence of headache turned out to be 7.2% and the Incidence of nausea was found to be 11.0%. This molecule showed an Incidence of vomiting in data set [1] of 4.9%. Moreover, the “Overall safety and tolerability” value in data set [1] (single 1200 mg dose) was “safe and well-tolerated”. Further, in data set [2], the “Patients with adverse events leading to study drug discontinuation” value is 3.7%, the “Treatment emergent adverse events considered by investigators as related to study drug” value was determined as 22.2% and the “Patients reported to experience at least one adverse event” value stood at 55.3%. Also, the “Free Fraction” value in data set [3] was 0.15. Besides, in data set [3] (serum from nonclinical species and humans (Arhin et al., 2010)), the Protein binding result is recorded as “approximately 85%”.
`CN[C@H](CC(C)C)C(=O)N[C@H]1C(=O)N[C@@H](CC(N)=O)C(=O)N[C@H]2C(=O)N[C@H]3C(=O)N[C@H](C(=O)N[C@H](C(=O)O)c4cc(O)cc(O)c4-c4cc3ccc4O)[C@H](O)c3ccc(c(Cl)c3)Oc3cc2cc(c3O[C@@H]2O[C@H](CO)[C@@H](O)[C@H](O)[C@H]2O[C@H]2C[C@](C)(N)[C@H](O)[C@H](C)O2)Oc2ccc(cc2Cl)[C@H]1O` [Vancomycin, vancomycin]: in data set [1], the “Cellulitis SAEs considered new events” value was 4, the “Discontinuation of study drug due to cellulitis” value was found to be 3 patients, the “Discontinuation of study drug due to drug hypersensitivity” value is 2 patients and the “Discontinuation of study drug due to hypersensitivity” value was 5 patients. For the same molecule, in data set [1], the “Discontinuation of study drug due to pruritus” value is 2 patients, the “Discontinuation of study drug due to rash” value was determined as 2 patients, the “Discontinuation of study drug due to sepsis” value is listed as 2 patients and the “Discontinuation of study drug due to skin bacterial infection” value was 2 patients. For the same molecule, in data set [1], the “Frequency of SAEs” value was 7.3%; the “Histamine-like reactions (Red Man syndrome)” value came to 2 patients; the “Proportion of patients experiencing a TEAE that led to discontinuation of the study drug” value is listed as 5.8%; the “Skin and subcutaneous tissue adverse events” value was found to be 19.1%. Moreover, in data set [1], the “Patients who died during the study” value was “two”, the “Infusion site reaction AEs” value is recorded as 7.1%, the “Pruritus AEs” value was determined as 9.1% and the Incidence of diarrhea is reported as 3.5%. In data set [1], this molecule returned an Incidence of headache of 7.9%, an Incidence of nausea of 8.9% and an Incidence of vomiting of 3.7%. In data set [2], the “Patients with adverse events leading to study drug discontinuation” value stood at 4.2%, the “Treatment emergent adverse events considered by investigators as related to study drug” value turned out to be 28.4% and the “Patients reported to experience at least one adverse event” value is 56.9%. Also, the “Free Fraction” value in data set [3] is listed as 0.54.

Source of the values: US20160101148A1, “TREATMENT AND PREVENTION OF BACTERIAL SKIN INFECTIONS USING ORITAVANCIN” (priority 2013, published 2016).
